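Interpolation was linear, between the two tested concentrations surrounding the appropriate level; five concentrations were tested over 48 hours in 96-well plates. The concentration for 50% growth inhibition is given as GI50. At the TGI there is no net growth.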
Legend:
Assay in all cases: NCI tumour cell line growth inhibition, 48 h
[1] = tested on: 786-0 renal
[2] = tested on: COLO 205 colon
[3] = tested on: HOP-92 NSCLC
[4] = tested on: LOX IMVI melanoma
[5] = tested on: OVCAR-3 ovarian
[6] = tested on: OVCAR-8 ovarian
[7] = tested on: RXF 393 renal
[8] = tested on: SF-539 CNS
[9] = tested on: SK-MEL-2 melanoma
[10] = tested on: T-47D breast

Compound | GI50 [1] [µM] | TGI [1] [µM] | GI50 [2] [µM] | TGI [2] [µM] | GI50 [3] [µM] | TGI [3] [µM] | GI50 [4] [µM] | TGI [4] [µM] | GI50 [5] [µM] | TGI [5] [µM] | GI50 [6] [µM] | TGI [6] [µM] | GI50 [7] [µM] | TGI [7] [µM] | GI50 [8] [µM] | TGI [8] [µM] | GI50 [9] [µM] | TGI [9] [µM] | GI50 [10] [µM] | TGI [10] [µM]
NC(=O)c1cccnc1 | > 100 | > 100 | > 100 | > 100 | > 100 | > 100 | > 100 | > 100 | > 100 | > 100 | > 100 | > 100 | > 100 | > 100 | > 100 | > 100 | > 100 | > 100 | > 100 | > 100
Clc1ccc(/C=C/c2ccc3ccccc3n2)cc1 | 6.33 | > 100 | 1.46 | 6.73 | 2.82 | > 29.9 | 2.51 | > 100 | 0.917 | 6.73 | 1.06 | > 100 | 0.648 | > 74.7 | 0.428 | 13.8 | 0.311 | 1.24 | 5.16 | > 100
CC(NC(=O)Cc1ccc(C(F)(F)P(=O)(OCc2ccc([N+](=O)[O-])o2)N(C)CCCCCl)cc1)c1ccc(OCC2CCCCC2)c(C(N)=O)c1 (stereo not given) | 1.77 | 3.97 | 3.94 | 11.2 | 16.5 | 37.2 | 2.06 | 5.87 | 2.31 | 9.82 | 12.1 | 41.9 | 4.36 | 9.97 | 6.33 | 13.4 | 6.48 | > 48.5 | 4.33 | 15
c1ccc(-c2nc3n(c2-c2ccc4c(c2)OCO4)CCC3)nc1 | 3.89 | 24.9 | 9.15 | > 25 | 3.48 | 20.8 | 7.46 | > 25 | 7.69 | > 22.6 | 6.34 | > 25 | 2.45 | > 17.5 | 6.38 | 21.6 | 11.7 | > 25 | 7.99 | > 23.4
C=CC(C)(C)n1cc(C2=C(O)C(=O)C(c3cn(C(C)(C)C=C)c4ccccc34)=C(O)C2=O)c2ccccc21 | – | > 34.8 | – | 30 | – | 18.9 | – | 11.2 | – | 4.48 | – | 13.6 | – | 3.87 | – | 4.11 | – | 4.22 | – | 23.1
COc1cc(OCc2cccc(-c3ccccc3)c2C)cc(OC)c1CN1CCCCC1C(=O)NCCOCCOCCN (stereo not given) | 1.83 | 3.53 | 1.82 | 3.7 | 1.57 | 5.45 | 1.7 | 3.21 | 2.11 | 5.03 | 3.26 | 12.1 | 3.26 | 11.4 | 1.74 | 3.25 | 1.96 | 4.03 | 1.77 | 3.77
